In paper PMC1847690 (PLoS Pathogens, 2007):

Legend:
[1] = molecular target: PknK kinase domain (PknK1–289) (Mycobacterium tuberculosis, UniProt P9WI65)
UsfX (Rv3287c) = molecular target: T1, UsfX (Rv3287c) (Mycobacterium tuberculosis, UniProt P9WGX7)
T1 construct: gene rsbW

[2] = molecular target: PknE kinase domain (PknE1–286) (Mycobacterium tuberculosis, UniProt P9WI77)
[3] = molecular target: PknB kinase domain (PknB1–308) (Mycobacterium tuberculosis, UniProt P9WI81)
[4] = molecular target: PknA kinase domain (PknA1–337) (Mycobacterium tuberculosis, UniProt P9WI83)
Chain of PknA kinase domain (PknA1–337) (P9WI83 1-337): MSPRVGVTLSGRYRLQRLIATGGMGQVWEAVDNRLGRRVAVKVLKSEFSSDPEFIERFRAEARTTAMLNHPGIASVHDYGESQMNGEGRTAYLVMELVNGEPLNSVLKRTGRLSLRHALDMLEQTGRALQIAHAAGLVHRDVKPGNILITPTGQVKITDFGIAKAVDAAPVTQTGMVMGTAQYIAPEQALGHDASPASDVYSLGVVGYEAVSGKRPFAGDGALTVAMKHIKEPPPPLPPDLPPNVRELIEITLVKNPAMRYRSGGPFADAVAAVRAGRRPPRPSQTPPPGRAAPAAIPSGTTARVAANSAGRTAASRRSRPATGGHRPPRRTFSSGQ

[5] = molecular target: PknD kinase domain (PknD1–378) (Mycobacterium tuberculosis, UniProt P9WI79)
Chain of PknD kinase domain (PknD1–378) (P9WI79 1-378): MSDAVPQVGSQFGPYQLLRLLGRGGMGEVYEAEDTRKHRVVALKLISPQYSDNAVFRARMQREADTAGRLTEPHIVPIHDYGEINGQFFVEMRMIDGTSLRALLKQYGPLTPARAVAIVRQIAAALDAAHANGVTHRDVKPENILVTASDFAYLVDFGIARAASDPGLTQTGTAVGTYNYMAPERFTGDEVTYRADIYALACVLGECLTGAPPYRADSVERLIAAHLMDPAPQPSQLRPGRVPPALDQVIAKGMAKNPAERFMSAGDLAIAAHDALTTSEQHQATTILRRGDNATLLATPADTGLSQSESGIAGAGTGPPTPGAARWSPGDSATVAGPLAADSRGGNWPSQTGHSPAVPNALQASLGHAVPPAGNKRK

Chain of PknK kinase domain (PknK1–289) (P9WI65 1-289): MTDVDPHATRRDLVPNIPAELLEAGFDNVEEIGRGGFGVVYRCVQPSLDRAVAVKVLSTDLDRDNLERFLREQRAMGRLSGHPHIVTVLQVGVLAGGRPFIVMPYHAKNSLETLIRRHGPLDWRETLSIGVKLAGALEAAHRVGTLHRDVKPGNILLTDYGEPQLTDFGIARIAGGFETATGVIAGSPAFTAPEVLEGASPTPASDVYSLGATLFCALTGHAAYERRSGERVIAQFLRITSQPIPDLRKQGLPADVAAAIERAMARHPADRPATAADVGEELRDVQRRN
Chain of PknB kinase domain (PknB1–308) (P9WI81 1-308): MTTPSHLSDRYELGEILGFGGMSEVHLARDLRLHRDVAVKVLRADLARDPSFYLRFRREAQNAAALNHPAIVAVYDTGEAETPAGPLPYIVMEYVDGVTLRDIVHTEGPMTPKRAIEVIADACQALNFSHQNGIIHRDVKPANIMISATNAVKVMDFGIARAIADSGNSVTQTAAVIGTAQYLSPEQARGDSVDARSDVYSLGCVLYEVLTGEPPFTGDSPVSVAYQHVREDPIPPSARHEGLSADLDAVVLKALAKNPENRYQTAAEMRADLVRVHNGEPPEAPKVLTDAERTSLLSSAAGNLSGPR
Chain of PknE kinase domain (PknE1–286) (P9WI77 1-286): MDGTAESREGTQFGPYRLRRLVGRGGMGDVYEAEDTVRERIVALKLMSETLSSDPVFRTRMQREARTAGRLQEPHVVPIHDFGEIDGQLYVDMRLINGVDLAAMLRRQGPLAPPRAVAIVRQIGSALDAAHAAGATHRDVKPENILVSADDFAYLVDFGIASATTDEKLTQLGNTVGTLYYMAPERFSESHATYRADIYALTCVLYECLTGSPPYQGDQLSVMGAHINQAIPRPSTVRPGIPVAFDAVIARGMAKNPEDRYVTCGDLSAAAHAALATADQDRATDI
T1 sequence (P9WGX7 whole entry): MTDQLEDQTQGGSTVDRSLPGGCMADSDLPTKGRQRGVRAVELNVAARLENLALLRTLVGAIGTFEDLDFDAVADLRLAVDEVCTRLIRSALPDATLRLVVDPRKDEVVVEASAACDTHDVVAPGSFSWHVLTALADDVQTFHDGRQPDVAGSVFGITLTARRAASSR

Row | SMILES | [γ-32P]ATP transfer to MyBP, autoradiography [1] | phosphorylation of MyBP, autoradiography (UsfX (Rv3287c)) | [γ-32P]ATP transfer to Rv0516c, RshA, Rv1904 and RsfA, autoradiography [2] | [γ-32P]ATP transfer to Rv0516c and RshA, autoradiography [3] | [γ-32P]ATP transfer to MyBP and the MBP tag, autoradiography [4] | dose-dependent inhibition [5]
1 | Nc1ncnc2c1ncn2[C@@H]1O[C@H](COP(=O)(O)OP(=O)(O)OP(=O)(O)O)[C@@H](O)[C@H]1O [ATP] | At concentrations of each kinase domain equally active in phosphorylating the nonspecific substrate, MyBP | we incubated these proteins under conditions in which UsfX phosphorylated the model substrate | PknE weakly phosphorylated Rv1904 and RsfA (Rv1365c) | PknB and PknE also phosphorylated the anti–sigma factor RshA (Rv3221A) | The MBP tag was phosphorylated by the PknA, PknB, and PknE kinase domains | –
2 | O=C1c2ccccc2-c2n[nH]c3cccc1c23 [SP600125] | – | – | – | – | – | The SP600125 inhibitor blocked this Rv0516c phosphorylation (Figure 3B) in a dose-dependent manner
